Measured values as given in ChEMBL document CHEMBL1150977, “A quantitative analysis of kinase inhibitor selectivity” (Nat Biotechnol, 2008).

Legend:
[1] = biological target: T1, cAMP-dependent protein kinase catalytic subunit PRKX (Homo sapiens, UniProt P51817)
T1 sequence (P51817 whole entry): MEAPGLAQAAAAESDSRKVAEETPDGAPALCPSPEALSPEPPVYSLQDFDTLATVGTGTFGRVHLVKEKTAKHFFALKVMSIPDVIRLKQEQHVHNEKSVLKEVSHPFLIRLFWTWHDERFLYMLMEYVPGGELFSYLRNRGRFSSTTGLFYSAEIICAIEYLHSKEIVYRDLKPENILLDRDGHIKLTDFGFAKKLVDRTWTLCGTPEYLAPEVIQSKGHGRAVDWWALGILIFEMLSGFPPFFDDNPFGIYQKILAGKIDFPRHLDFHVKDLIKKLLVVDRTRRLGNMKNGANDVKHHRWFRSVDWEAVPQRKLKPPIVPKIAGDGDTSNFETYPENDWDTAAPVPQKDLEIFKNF

[2] = biological target: T2, Tyrosine-protein kinase JAK3 (Homo sapiens, UniProt P52333)
T2 sequence (P52333 whole entry): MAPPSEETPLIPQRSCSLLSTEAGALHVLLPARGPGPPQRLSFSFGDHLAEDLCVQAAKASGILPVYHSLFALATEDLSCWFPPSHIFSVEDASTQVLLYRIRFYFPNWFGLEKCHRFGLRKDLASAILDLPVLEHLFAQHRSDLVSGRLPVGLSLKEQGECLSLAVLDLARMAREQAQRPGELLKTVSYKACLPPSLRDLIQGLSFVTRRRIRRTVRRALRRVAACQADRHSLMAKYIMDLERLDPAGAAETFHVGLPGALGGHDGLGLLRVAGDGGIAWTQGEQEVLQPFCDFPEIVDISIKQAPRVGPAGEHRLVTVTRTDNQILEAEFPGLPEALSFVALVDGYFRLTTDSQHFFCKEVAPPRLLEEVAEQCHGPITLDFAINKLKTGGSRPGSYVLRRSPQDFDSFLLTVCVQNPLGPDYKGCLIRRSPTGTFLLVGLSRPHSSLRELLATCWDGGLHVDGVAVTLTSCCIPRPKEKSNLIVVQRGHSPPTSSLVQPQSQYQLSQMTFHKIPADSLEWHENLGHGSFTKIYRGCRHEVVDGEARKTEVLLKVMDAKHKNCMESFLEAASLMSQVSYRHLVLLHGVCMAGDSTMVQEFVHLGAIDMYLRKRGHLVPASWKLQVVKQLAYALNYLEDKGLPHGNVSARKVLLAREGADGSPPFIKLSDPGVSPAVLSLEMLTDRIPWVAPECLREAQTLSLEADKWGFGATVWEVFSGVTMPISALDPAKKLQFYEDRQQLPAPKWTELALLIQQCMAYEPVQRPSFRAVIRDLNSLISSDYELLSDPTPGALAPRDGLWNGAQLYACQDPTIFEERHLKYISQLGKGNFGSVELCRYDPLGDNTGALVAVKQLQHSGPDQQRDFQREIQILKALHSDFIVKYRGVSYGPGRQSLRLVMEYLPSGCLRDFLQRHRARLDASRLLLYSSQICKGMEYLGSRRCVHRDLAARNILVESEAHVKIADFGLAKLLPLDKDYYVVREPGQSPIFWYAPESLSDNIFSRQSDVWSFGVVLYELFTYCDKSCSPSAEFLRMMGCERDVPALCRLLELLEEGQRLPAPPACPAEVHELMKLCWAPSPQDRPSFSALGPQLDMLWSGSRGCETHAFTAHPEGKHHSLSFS

[3] = biological target: T3, Serine/threonine-protein kinase D2 (Homo sapiens, UniProt Q9BZL6)
T3 sequence (Q9BZL6 whole entry): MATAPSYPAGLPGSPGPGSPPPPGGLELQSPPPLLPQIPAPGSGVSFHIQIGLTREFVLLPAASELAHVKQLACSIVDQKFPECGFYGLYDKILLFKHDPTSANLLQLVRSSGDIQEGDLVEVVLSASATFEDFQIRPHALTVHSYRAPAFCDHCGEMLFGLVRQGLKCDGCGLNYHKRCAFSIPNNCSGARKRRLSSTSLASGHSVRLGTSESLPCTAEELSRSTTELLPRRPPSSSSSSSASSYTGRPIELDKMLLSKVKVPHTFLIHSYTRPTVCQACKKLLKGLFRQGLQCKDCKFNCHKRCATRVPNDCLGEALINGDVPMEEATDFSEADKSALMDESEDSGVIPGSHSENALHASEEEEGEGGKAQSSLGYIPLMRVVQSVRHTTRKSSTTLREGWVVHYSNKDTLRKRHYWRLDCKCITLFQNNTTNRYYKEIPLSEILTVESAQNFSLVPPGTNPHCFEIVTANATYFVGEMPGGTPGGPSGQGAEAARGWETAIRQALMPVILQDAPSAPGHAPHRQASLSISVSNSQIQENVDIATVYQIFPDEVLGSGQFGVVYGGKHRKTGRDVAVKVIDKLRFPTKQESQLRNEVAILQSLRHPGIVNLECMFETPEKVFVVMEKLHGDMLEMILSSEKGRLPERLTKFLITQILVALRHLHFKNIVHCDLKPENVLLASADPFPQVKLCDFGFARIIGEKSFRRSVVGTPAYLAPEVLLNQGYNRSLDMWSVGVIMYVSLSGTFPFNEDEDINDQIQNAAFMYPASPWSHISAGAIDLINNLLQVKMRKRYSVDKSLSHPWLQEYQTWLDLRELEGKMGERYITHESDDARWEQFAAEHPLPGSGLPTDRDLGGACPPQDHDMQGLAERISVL

[4] = biological target: Calcium/calmodulin-dependent protein kinase type II subunit beta (Homo sapiens, UniProt Q13554)
Calcium/calmodulin-dependent protein kinase type II subunit beta, sequence (Q13554 whole entry, canonical isoform): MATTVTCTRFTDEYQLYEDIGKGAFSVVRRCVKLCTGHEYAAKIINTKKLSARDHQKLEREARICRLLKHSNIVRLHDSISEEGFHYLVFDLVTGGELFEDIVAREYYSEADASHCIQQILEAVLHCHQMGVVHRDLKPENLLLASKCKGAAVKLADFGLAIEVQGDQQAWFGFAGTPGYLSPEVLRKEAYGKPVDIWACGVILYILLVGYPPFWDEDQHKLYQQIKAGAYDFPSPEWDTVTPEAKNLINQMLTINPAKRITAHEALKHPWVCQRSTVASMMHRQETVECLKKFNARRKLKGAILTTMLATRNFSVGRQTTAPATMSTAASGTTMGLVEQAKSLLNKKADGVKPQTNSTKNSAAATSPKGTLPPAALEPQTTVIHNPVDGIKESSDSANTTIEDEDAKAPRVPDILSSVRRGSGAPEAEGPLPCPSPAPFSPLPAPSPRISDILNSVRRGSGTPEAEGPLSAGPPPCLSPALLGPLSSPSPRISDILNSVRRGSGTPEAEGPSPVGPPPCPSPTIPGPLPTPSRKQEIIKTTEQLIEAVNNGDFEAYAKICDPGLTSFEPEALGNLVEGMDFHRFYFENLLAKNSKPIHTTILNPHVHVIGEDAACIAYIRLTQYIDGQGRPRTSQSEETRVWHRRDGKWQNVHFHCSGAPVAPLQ

[5] = biological target: T4, Phosphorylase b kinase gamma catalytic chain, liver/testis isoform (Homo sapiens, UniProt P15735)
T4 sequence (P15735 whole entry): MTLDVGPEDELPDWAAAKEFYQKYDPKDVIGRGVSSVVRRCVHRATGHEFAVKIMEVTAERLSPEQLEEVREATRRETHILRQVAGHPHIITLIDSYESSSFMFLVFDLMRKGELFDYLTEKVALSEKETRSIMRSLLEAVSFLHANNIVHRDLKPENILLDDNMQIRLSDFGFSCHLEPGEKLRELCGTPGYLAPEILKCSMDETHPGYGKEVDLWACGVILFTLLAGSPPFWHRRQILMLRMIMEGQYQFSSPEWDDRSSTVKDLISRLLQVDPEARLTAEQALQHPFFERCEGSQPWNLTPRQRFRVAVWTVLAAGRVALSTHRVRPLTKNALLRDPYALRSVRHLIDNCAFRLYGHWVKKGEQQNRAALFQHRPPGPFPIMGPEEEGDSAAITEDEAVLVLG

SMILES	Kd [1] [µM]	Kd [2] [µM]	Kd [3] [µM]	Kd [4] [µM]	Kd [5] [µM]
CCN1CCN(Cc2ccc(NC(=O)Nc3ccc(Oc4cc(NC)ncn4)cc3)cc2C(F)(F)F)CC1 [AST-487]	> 10	–	–	–	–
COCC(=O)NC/C=C/c1ccc2ncnc(Nc3ccc(Oc4ccc(C)nc4)c(C)c3)c2c1 [CP-724714]	> 10	> 10	> 10	> 10	> 10
Nc1nc(Nc2ccc(S(N)(=O)=O)cc2)nn1C(=O)c1c(F)cccc1F [JNJ-7706621]	–	–	> 10	> 10	> 10
CCOc1cc2ncc(C#N)c(Nc3ccc(F)c(Cl)c3)c2cc1NC(=O)/C=C/CN(C)C [PELITINIB]	> 10	0.025	> 10	> 10	> 10
Oc1ccc(-c2nc(-c3ccncc3)c(-c3ccc(F)cc3)[nH]2)cc1 [SB-202190]	> 10	> 10	> 10	> 10	> 10
NC(=O)c1ccc(-c2nc(-c3ccc4c(c3)OCO4)c(-c3ccccn3)[nH]2)cc1 [SB-431542]	> 10	> 10	> 10	> 10	> 10
